# Experimental data reported in patent US11565003B2, “Mechanical opening of lipid bilayers by molecular nanomachines” (William Marsh Rice University, priority 2016, dated 2023).
# Starred links: 1 amine or outer side, 2 acyl side, 3 side chain; linkers in the order of their positions; H or OH if unused. Positions of bridges follow the written chain, without caps; N, C: chain ends. Residues, ends and D or L forms follow the SMILES beside them. Chains are numbered I, II in the order given. X2 = C[C@@H]1Cc2ccc3ccccc3c2C1=C1c2cc(C#CCCn3cc(C(=O)[*:1])nn3)ccc2Sc2ccc(C#CCCn3cc(C(=O)[*:2])nn3)cc21
# Tested on: PC-3 cells
# Assay: UV-activated nanomechanical necrosis, live cell confocal microscopy, PC-3
# Type: cell-based, human
# Conditions: for Time of Full Necrosis / Time of Initial Necrosis / % acceleration for full necrosis: 355 nm UV; for % acceleration for full necrosis: versus UV upon blank cells
# Method: Following the synthetic bilipid vesicle experiments, nanomechanical action upon live cells was studied using confocal microscopy aided by a super-resolution technique called Phase Modulation Nanoscopy. Applicants used two experimental methods. In the first method (Method A), the molecular motors were loaded into the cell media and the imaging was initiated within 5 minutes to 24 hours. In the second method, (Method B), the molecular motors were loaded into the cell media, incubated for 30 minutes to 24 hours, and then washed three times with fresh molecular motor-free media before imaging.
# Next, Applicants used the smaller nanomachine, 3. Initial control experiments (blank) were performed without nanomachines being present. UV-induced (355 nm) PC-3 necrosis is not initiated until approximately scan 20 (corresponding to 300 second continuous scanning UV exposure, 400 nJ/voxel total dwell time), characterized by massive disruption and rupture of the mitochondrial network and subsequent well-pronounced auto-fluorescent signal detectable in the nucleoli and nucleus wall (FIG. 7A). This is observable by the nucleoli membrane permeabilization and DNA damage at the onset of necrosis. The UV-induced necrosis reaches final stages at approximately scan 40 (corresponding to 600 seconds) that is consistent with characteristic extracellular membrane rupture and homogenous cytosolic auto-fluorescence, indicating loss of cellular organelle boundaries.
# Microscopy cells were seeded in untreated iBibi 100 μL live cell channels and allowed to grow to 40% to 60% confluence, at 37° C. in 5% CO2. At this stage, the medium was replaced and cells were treated with the studied nanomachines and co-stains as appropriate, with 0.1% DMSO (as detailed above) present in the final imaging medium. For live cell imaging, DMEM/F12 media (10% FBS) lacking phenol red was used from this point onwards. Following incubation, where Method B was used, the channels were washed with live cell imaging media and imaged using a purpose build incubator housing the microscope maintaining 37° C., 5% CO2 and 10% humidity.
# All live cell imaging experiments used either NIH 3T3 mouse skin fibroblast cells, PC-3 cells, a grade 3 human prostate adenocarcinoma, or Chinese hamster ovary cells (CHO). These are all well-studied cell lines with discrete morphological compositions. Each molecular machine was used as a stock solution at 0.10 to 1.00 μM with total dimethyl sulfoxide (DMSO) concentrations not exceeding 0.1% in the final cell media in order to avoid unwanted cell membrane permeabilization, the DMSO being required for solubility of the organic nanomachines. All loading experiments are carried out in a light-suppressed manner and the possibility of induced or accelerated uptake due to interaction between the molecular motors and the applied co-stain has been eliminated using a series of individual and reversed loading experiments.
# All experimental imaging parameters (i.e., laser beam size, confocal pinhole size, laser intensity, line scanning speed, scanning area (field of view, FOV), and line averaging sequences) were kept constant throughout the experiments. The accuracy and errors associated with the establishment of accelerated necrosis are determined based on one dual channel imaging sequence, which takes 15 seconds in total. This imaging sequence has been carefully established using untreated live cells.
# Steady state fluorescence images were recorded using a PhMoNa enhanced Leica SP5 II LSCM equipped with a HCX PL APO 63×/1.40 NA LambdaBlue Oil immersion objective. As an initial control experiment to establish the UV-induced cell toxicity threshold, while mitigating voxel exposure and ensuring sufficient laser dwell time, an imaging sequence has been established to monitor cell morphological and physiological changes as a function of time. All experiments used cell-line-determined culture medium containing 0.1% DMSO. […]
# [1] = PC-3, Method B (washed three times)
smiles,measurement,setting,value
CC(C)[C@H](NC(=O)[C@H](CCCNC(=N)N)NC(=O)[C@@H](NC(=O)[C@H](CC(N)=O)NC(=O)[C@H](CO)NC(=O)c1cn(CCC#Cc2ccc3c(c2)C(=C2c4c(ccc5ccccc45)C[C@H]2C)c2cc(C#CCCn4cc(C(=O)N[C@@H](CO)C(=O)N[C@@H](CC(N)=O)C(=O)N[C@H](C(=O)N[C@@H](CCCNC(=N)N)C(=O)N[C@H](C(=O)N[C@@H](C)C(=O)N5CCC[C@H]5C(=O)O)C(C)C)[C@@H](C)O)nn4)ccc2S3)nn1)[C@@H](C)O)C(=O)N[C@@H](C)C(=O)N1CCC[C@H]1C(=O)O [Compound 9] (I: SNTRVAP-OH / II: SNTRVAP-OH; linker I:N-II:N via X2),selectivity for targeted PC-3 cells over non-targeted control cells (in words),NIH 3T3 and CHO as non-targeted controls,selectively target the PC-3 cell line over CHO cells
same,Time of Full Necrosis,"PC-3, Method A (no washing)",360 s
same,Time of Initial Necrosis,"PC-3, Method A (no washing)",150 s
same,% acceleration for full necrosis,"PC-3, Method A",40%
same,Time of Full Necrosis,[1],390 s
same,Time of Initial Necrosis,[1],180 s
same,% acceleration for full necrosis,"PC-3, Method B",35%
same,accelerated necrosis upon UV-activation after washing and further 24 hours in rotor free media,"PC-3, incubated 30 minutes to 4 hours, washed three times, 24 hours rotor free media",25%
